Measurements: patent US7378082B1, “Method for treating allergic rhinitis without adverse effects” (Inspire Pharmaceuticals, Inc., priority 2007, dated 2008)

Details: intranasal 0.05% or 0.1% nasal spray; after first dose (Day 1) and last dose (Day 14); 43 subjects
Protocol: Each group started with approximately 190 subjects.
Plasma epinastine levels following intranasal administration were determined.

NC1=NCC2c3ccccc3Cc3ccccc3N12 (stereo not shown) [epinastine, 3-amino-9,13b-dihydro-1H-dibenz-[c,-f]imidazol[1,5-a]azepine]
Plasma concentrations of epinastine: < 1 ng/mL
